{"source": "PubChem BioAssay (NCI)", "experiment_in_all_cases": "growth of human tumour cells (NCI), 384-well format", "key": {"PC-3 prostate": {"tested_on": "PC-3 prostate"}, "SF-268 CNS": {"tested_on": "SF-268 CNS"}, "SW-620 colon": {"tested_on": "SW-620 colon"}, "RPMI-8226 leukemia": {"tested_on": "RPMI-8226 leukemia"}, "HCT-15 colon": {"tested_on": "HCT-15 colon"}, "EKVX NSCLC": {"tested_on": "EKVX NSCLC"}, "CCRF-CEM leukemia": {"tested_on": "CCRF-CEM leukemia"}, "M14 melanoma": {"tested_on": "M14 melanoma"}, "BT-549 breast": {"tested_on": "BT-549 breast"}, "SK-MEL-28 melanoma": {"tested_on": "SK-MEL-28 melanoma"}, "SNB-75 CNS": {"tested_on": "SNB-75 CNS"}, "OVCAR-3 ovarian": {"tested_on": "OVCAR-3 ovarian"}, "DU-145 prostate": {"tested_on": "DU-145 prostate"}, "SNB-19 CNS": {"tested_on": "SNB-19 CNS"}, "HOP-92 NSCLC": {"tested_on": "HOP-92 NSCLC"}, "U251 glioblastoma": {"tested_on": "U251 glioblastoma"}, "RXF 393 renal": {"tested_on": "RXF 393 renal"}, "NCI-H23 lung": {"tested_on": "NCI-H23 lung"}, "KM12 colon": {"tested_on": "KM12 colon"}, "UACC-62 melanoma": {"tested_on": "UACC-62 melanoma"}, "OVCAR-8 ovarian": {"tested_on": "OVCAR-8 ovarian"}, "A549 NSCLC": {"tested_on": "A549 NSCLC"}, "SK-MEL-5 melanoma": {"tested_on": "SK-MEL-5 melanoma"}, "CAKI-1 renal": {"tested_on": "CAKI-1 renal"}, "T-47D breast": {"tested_on": "T-47D breast"}, "HL-60(TB) leukemia": {"tested_on": "HL-60(TB) leukemia"}, "NCI-H522 lung": {"tested_on": "NCI-H522 lung"}, "HCC-2998 colon": {"tested_on": "HCC-2998 colon"}, "HT29 colon": {"tested_on": "HT29 colon"}, "SF-539 CNS": {"tested_on": "SF-539 CNS"}, "MDA-MB-468 breast": {"tested_on": "MDA-MB-468 breast"}, "K-562 leukemia": {"tested_on": "K-562 leukemia"}, "A498 renal": {"tested_on": "A498 renal"}, "NCI-H322M lung": {"tested_on": "NCI-H322M lung"}, "OVCAR-4 ovarian": {"tested_on": "OVCAR-4 ovarian"}, "HOP-62 NSCLC": {"tested_on": "HOP-62 NSCLC"}, "SF-295 CNS": {"tested_on": "SF-295 CNS"}, "MOLT-4 leukemia": {"tested_on": "MOLT-4 leukemia"}, "IGROV1 ovarian": {"tested_on": "IGROV1 ovarian"}, "HS 578T breast": {"tested_on": "HS 578T breast"}, "SN12C renal": {"tested_on": "SN12C renal"}, "UACC-257 melanoma": {"tested_on": "UACC-257 melanoma"}, "MALME-3M melanoma": {"tested_on": "MALME-3M melanoma"}}, "note": "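The concentration for 50% growth inhibition is given as GI50. TGI denotes the concentration required for complete inhibition of growth.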"}
{"molecule": "COc1cc(F)ccc1-c1cc(Nc2cc(CS(C)(=N)=O)ccn2)ncc1F", "note": "(stereo unspecified)", "values": [{"measurement": "GI50", "setting": "PC-3 prostate", "result": 39.9, "unit": "nM"}, {"measurement": "TGI", "setting": "PC-3 prostate", "result": 250, "unit": "nM"}, {"measurement": "GI50", "setting": "SF-268 CNS", "result": 17.1, "unit": "nM"}, {"measurement": "TGI", "setting": "SF-268 CNS", "result": 44.5, "unit": "nM"}, {"measurement": "GI50", "setting": "SW-620 colon", "result": 43.7, "unit": "nM"}, {"measurement": "TGI", "setting": "SW-620 colon", "result": 475, "unit": "nM"}, {"measurement": "GI50", "setting": "RPMI-8226 leukemia", "result": 41, "unit": "nM"}, {"measurement": "TGI", "setting": "RPMI-8226 leukemia", "result": 138, "unit": "nM"}, {"measurement": "GI50", "setting": "HCT-15 colon", "result": 38.7, "unit": "nM"}, {"measurement": "TGI", "setting": "HCT-15 colon", "result": "> 100000", "unit": "nM"}, {"measurement": "GI50", "setting": "EKVX NSCLC", "result": 73.9, "unit": "nM"}, {"measurement": "TGI", "setting": "EKVX NSCLC", "result": 498, "unit": "nM"}, {"measurement": "GI50", "setting": "CCRF-CEM leukemia", "result": 17.6, "unit": "nM"}, {"measurement": "TGI", "setting": "CCRF-CEM leukemia", "result": 36.2, "unit": "nM"}, {"measurement": "GI50", "setting": "M14 melanoma", "result": 34.7, "unit": "nM"}, {"measurement": "TGI", "setting": "M14 melanoma", "result": 157, "unit": "nM"}, {"measurement": "GI50", "setting": "BT-549 breast", "result": 26.2, "unit": "nM"}, {"measurement": "TGI", "setting": "BT-549 breast", "result": 74, "unit": "nM"}, {"measurement": "GI50", "setting": "SK-MEL-28 melanoma", "result": 30.4, "unit": "nM"}, {"measurement": "TGI", "setting": "SK-MEL-28 melanoma", "result": 167, "unit": "nM"}, {"measurement": "GI50", "setting": "SNB-75 CNS", "result": 50.9, "unit": "nM"}, {"measurement": "TGI", "setting": "SNB-75 CNS", "result": 201, "unit": "nM"}, {"measurement": "GI50", "setting": "OVCAR-3 ovarian", "result": 24.2, "unit": "nM"}, {"measurement": "TGI", "setting": "OVCAR-3 ovarian", "result": 80.1, "unit": "nM"}, {"measurement": "GI50", "setting": "DU-145 prostate", "result": 29.1, "unit": "nM"}, {"measurement": "TGI", "setting": "DU-145 prostate", "result": 92.5, "unit": "nM"}, {"measurement": "GI50", "setting": "SNB-19 CNS", "result": 44.6, "unit": "nM"}, {"measurement": "TGI", "setting": "SNB-19 CNS", "result": "> 100000", "unit": "nM"}, {"measurement": "GI50", "setting": "HOP-92 NSCLC", "result": 62.9, "unit": "nM"}, {"measurement": "TGI", "setting": "HOP-92 NSCLC", "result": 46000, "unit": "nM"}, {"measurement": "GI50", "setting": "U251 glioblastoma", "result": 43.3, "unit": "nM"}, {"measurement": "TGI", "setting": "U251 glioblastoma", "result": "> 100000", "unit": "nM"}, {"measurement": "GI50", "setting": "RXF 393 renal", "result": 16, "unit": "nM"}, {"measurement": "TGI", "setting": "RXF 393 renal", "result": 37.6, "unit": "nM"}, {"measurement": "GI50", "setting": "NCI-H23 lung", "result": 30.4, "unit": "nM"}, {"measurement": "TGI", "setting": "NCI-H23 lung", "result": 130, "unit": "nM"}, {"measurement": "GI50", "setting": "KM12 colon", "result": 23.7, "unit": "nM"}, {"measurement": "TGI", "setting": "KM12 colon", "result": 73.5, "unit": "nM"}, {"measurement": "GI50", "setting": "UACC-62 melanoma", "result": 17.1, "unit": "nM"}, {"measurement": "TGI", "setting": "UACC-62 melanoma", "result": 49.2, "unit": "nM"}, {"measurement": "GI50", "setting": "OVCAR-8 ovarian", "result": 30.5, "unit": "nM"}, {"measurement": "TGI", "setting": "OVCAR-8 ovarian", "result": 112, "unit": "nM"}, {"measurement": "GI50", "setting": "A549 NSCLC", "result": 42.9, "unit": "nM"}, {"measurement": "TGI", "setting": "A549 NSCLC", "result": "> 100000", "unit": "nM"}, {"measurement": "GI50", "setting": "SK-MEL-5 melanoma", "result": 28.3, "unit": "nM"}, {"measurement": "TGI", "setting": "SK-MEL-5 melanoma", "result": 109, "unit": "nM"}, {"measurement": "GI50", "setting": "CAKI-1 renal", "result": 28.2, "unit": "nM"}, {"measurement": "TGI", "setting": "CAKI-1 renal", "result": "> 100000", "unit": "nM"}, {"measurement": "GI50", "setting": "T-47D breast", "result": 46.2, "unit": "nM"}, {"measurement": "TGI", "setting": "T-47D breast", "result": "> 100000", "unit": "nM"}, {"measurement": "GI50", "setting": "HL-60(TB) leukemia", "result": 15.4, "unit": "nM"}, {"measurement": "TGI", "setting": "HL-60(TB) leukemia", "result": 29.4, "unit": "nM"}, {"measurement": "GI50", "setting": "NCI-H522 lung", "result": 149, "unit": "nM"}, {"measurement": "TGI", "setting": "NCI-H522 lung", "result": 385, "unit": "nM"}, {"measurement": "GI50", "setting": "HCC-2998 colon", "result": 37.9, "unit": "nM"}, {"measurement": "TGI", "setting": "HCC-2998 colon", "result": 207, "unit": "nM"}, {"measurement": "GI50", "setting": "HT29 colon", "result": 65.1, "unit": "nM"}, {"measurement": "TGI", "setting": "HT29 colon", "result": 257, "unit": "nM"}, {"measurement": "GI50", "setting": "SF-539 CNS", "result": 26.3, "unit": "nM"}, {"measurement": "TGI", "setting": "SF-539 CNS", "result": 69, "unit": "nM"}, {"measurement": "GI50", "setting": "MDA-MB-468 breast", "result": 58.7, "unit": "nM"}, {"measurement": "TGI", "setting": "MDA-MB-468 breast", "result": 193, "unit": "nM"}, {"measurement": "GI50", "setting": "K-562 leukemia", "result": 136, "unit": "nM"}, {"measurement": "TGI", "setting": "K-562 leukemia", "result": 567, "unit": "nM"}, {"measurement": "GI50", "setting": "A498 renal", "result": 27, "unit": "nM"}, {"measurement": "TGI", "setting": "A498 renal", "result": "> 100000", "unit": "nM"}, {"measurement": "GI50", "setting": "NCI-H322M lung", "result": 29.2, "unit": "nM"}, {"measurement": "TGI", "setting": "NCI-H322M lung", "result": 134, "unit": "nM"}, {"measurement": "GI50", "setting": "OVCAR-4 ovarian", "result": 165, "unit": "nM"}, {"measurement": "TGI", "setting": "OVCAR-4 ovarian", "result": 889, "unit": "nM"}, {"measurement": "GI50", "setting": "HOP-62 NSCLC", "result": 18.3, "unit": "nM"}, {"measurement": "TGI", "setting": "HOP-62 NSCLC", "result": 45.5, "unit": "nM"}, {"measurement": "GI50", "setting": "SF-295 CNS", "result": 35.3, "unit": "nM"}, {"measurement": "TGI", "setting": "SF-295 CNS", "result": 180, "unit": "nM"}, {"measurement": "GI50", "setting": "MOLT-4 leukemia", "result": 27.3, "unit": "nM"}, {"measurement": "TGI", "setting": "MOLT-4 leukemia", "result": 89.1, "unit": "nM"}, {"measurement": "GI50", "setting": "IGROV1 ovarian", "result": 33.7, "unit": "nM"}, {"measurement": "TGI", "setting": "IGROV1 ovarian", "result": "> 100000", "unit": "nM"}, {"measurement": "GI50", "setting": "HS 578T breast", "result": 15.5, "unit": "nM"}, {"measurement": "TGI", "setting": "HS 578T breast", "result": 41.6, "unit": "nM"}, {"measurement": "GI50", "setting": "SN12C renal", "result": 23.3, "unit": "nM"}, {"measurement": "TGI", "setting": "SN12C renal", "result": 121, "unit": "nM"}, {"measurement": "GI50", "setting": "UACC-257 melanoma", "result": 104, "unit": "nM"}, {"measurement": "TGI", "setting": "UACC-257 melanoma", "result": 251, "unit": "nM"}, {"measurement": "GI50", "setting": "MALME-3M melanoma", "result": 50.3, "unit": "nM"}, {"measurement": "TGI", "setting": "MALME-3M melanoma", "result": 178, "unit": "nM"}]}
